# Results as given in patent EP1947089A1, “A-polymorph of a substituted pyrazoline, its preparation and use as medicaments” (Laboratorios del Dr. Esteve S.A., priority 2007, dated 2008).
# How the values were obtained:
# [1] = Thermogravimetric (TG) analysis; format: physicochemical; conditions: 10°C/min between 30 and 600°C, under nitrogen; no weight loss at lower temperatures
# Protocol: Thermogravimetric analyses (TGA) were recorded in a Mettler Toldo SDTA851 e. Samples of approximately 2 mg were weighted into open 40 µlalumina crucibles, and heated at 10°C/min between 30 and 600°C, under nitrogen (80 ml/min).
# [2] = Behaviour of the solid form under pressure stress; format: physicochemical; conditions: 98 kN (98.07 kN), 13 mm diameter samples, 1, 5 and 30 minutes
# Protocol: Samples of the a-Polymorph were submitted to pressure stress for various periods of time (1, 5 and 30 minutes) to investigate the effect of pressure on the solid form. The pressure (98kN) used was chosen to correspond to correspond to the pressure at which planar tablets, of a diameter between 10 and 15 mm, are made. […] Precisely, 13 mm diameter samples of the polymorph were submitted to 98.07 kN of pressure using a Specac press for 1, 5 and 30 minutes and analysed, with no difference.
# Herg channel = Herg channel (Homo sapiens, UniProt Q12809); experiment: Herg channel affinity; format: binding; conditions: general statement, no value given; low risk of QT prolongation expected
# Herg channel, sequence (Q12809 whole entry): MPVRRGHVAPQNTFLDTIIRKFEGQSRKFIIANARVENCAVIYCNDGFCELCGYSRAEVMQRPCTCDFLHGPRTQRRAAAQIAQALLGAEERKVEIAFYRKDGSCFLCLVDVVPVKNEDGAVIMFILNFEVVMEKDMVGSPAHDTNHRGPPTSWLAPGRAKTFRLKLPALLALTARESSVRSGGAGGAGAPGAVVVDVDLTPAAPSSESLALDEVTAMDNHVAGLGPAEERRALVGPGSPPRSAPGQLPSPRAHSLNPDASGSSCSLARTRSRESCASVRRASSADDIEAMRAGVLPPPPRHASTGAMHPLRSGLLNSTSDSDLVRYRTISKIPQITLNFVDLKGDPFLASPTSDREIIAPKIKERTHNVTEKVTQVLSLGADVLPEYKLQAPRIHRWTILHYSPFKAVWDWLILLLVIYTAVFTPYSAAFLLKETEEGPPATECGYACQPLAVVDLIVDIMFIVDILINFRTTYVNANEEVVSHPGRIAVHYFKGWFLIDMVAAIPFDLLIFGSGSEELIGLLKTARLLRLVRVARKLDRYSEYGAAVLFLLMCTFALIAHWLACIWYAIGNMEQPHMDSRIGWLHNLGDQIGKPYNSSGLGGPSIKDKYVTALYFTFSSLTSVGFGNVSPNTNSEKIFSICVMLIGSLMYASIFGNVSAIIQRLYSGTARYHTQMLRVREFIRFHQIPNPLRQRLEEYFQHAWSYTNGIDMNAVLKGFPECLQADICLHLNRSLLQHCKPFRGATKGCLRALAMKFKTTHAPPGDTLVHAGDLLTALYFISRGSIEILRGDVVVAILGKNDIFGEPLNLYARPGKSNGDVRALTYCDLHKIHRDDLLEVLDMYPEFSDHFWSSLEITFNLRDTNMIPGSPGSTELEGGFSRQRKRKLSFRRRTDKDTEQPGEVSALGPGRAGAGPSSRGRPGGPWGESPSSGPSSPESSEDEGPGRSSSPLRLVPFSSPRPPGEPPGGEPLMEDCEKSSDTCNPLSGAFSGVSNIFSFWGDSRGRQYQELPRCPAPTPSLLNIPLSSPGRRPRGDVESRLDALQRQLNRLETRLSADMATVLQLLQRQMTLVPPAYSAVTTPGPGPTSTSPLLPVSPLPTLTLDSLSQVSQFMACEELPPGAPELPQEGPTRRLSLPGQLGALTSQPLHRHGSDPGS
Compound,temperature of weight loss due to decomposition (TG analysis) [1],effect of pressure on the solid form (phase change) [2],Herg channel affinity (Herg channel)
"O=C(NN1CCCCC1)C1=NN(c2ccc(Cl)cc2Cl)C(c2ccc(Cl)cc2)C1 (racemic) [α-Polymorph, α-Polymorph of N-piperidinyl-5-(4-chlorophenyl)-1-(2,4-dichlorophenyl)-4,5-dihydro-1H-pyrazole-3-carboxamide]",higher than 280 °C,did not induce any phase change,–
"O=C(NN1CCCCC1)C1=NN(c2ccc(Cl)cc2Cl)C(c2ccc(Cl)cc2)C1 (racemic) [COMPOUND C, N-piperidinyl-5-(4-chlorophenyl)-1-(2,4-dichlorophenyl)-4,5-dihydro-1H-pyrazole-3-carboxamide]",–,–,relatively weak
